Assay results: PMC8037182, “Solvothermal Synthesis of Multiple Dihydropyrimidinones at a Time as Inhibitors of Eg5” (Molecules, 2021)

Test system: Hela cell line
Assay: Cytotoxicity MTS assay, Hela cell line
Format: cell-based
Conditions: for OD490 value, Mean / OD490 value, Well 1 / OD490 value, Well 2 / OD490 value, Well 3: Hela cell line, MTS
Method: The positive compounds (IC50 < 100 μM) obtained from the primary Eg5 motor protein ATPase assay were tested for antiproliferative activity in vitro against Caco-2 cell line, Hela cell line, L929 cell line and T24 cell line by performing MTS assay. Cells were introduced into 96-well plates at a density of 1000 cells per well. After 24 h incubation, the cells were exposed with compounds at final concentrations ranging from 0.5 to 100 µM for 24 h. DMSO was used at a final concentration of 0.025% as blank control, monastrol was used as the positive control. Then 20 µL (CellTiter 96® AQueous One Solution Promega, Madison, WI, USA) reagent was added in each well. After 2 h at 37 °C in a 80% humidified, 5% CO2 atmosphere, the absorbance at 490 nm was recorded using a microplate reader (BIO-RAD iMark^TM). The results were obtained in three independent duplicate experiments. The primary data were shown in Supplementary Materials Tables S4–S7. The IC50 values for these compounds were calculated from a non-linear regression graph plotted between the percentage of cell viability and concentration with SPSS17.0 software.

CCOC(=O)c1c(C2NC(=O)NC(C)=C2C(=O)Nc2ccccc2C)[nH]c(C(=O)OC)c1C (stereo not shown) [D2]
OD490 value, Mean (0.5μM, first assay): 2.6241
OD490 value, Well 1 (0.5μM, first assay): 2.6512
OD490 value, Well 2 (0.5μM, first assay): 2.7230
OD490 value, Well 3 (0.5μM, first assay): 2.4982
OD490 value, Mean (0.5μM, second assay): 2.6365
OD490 value, Well 1 (0.5μM, second assay): 2.7038
OD490 value, Well 2 (0.5μM, second assay): 2.6687
OD490 value, Well 3 (0.5μM, second assay): 2.5371
OD490 value, Mean (0.5μM, third assay): 2.6753
OD490 value, Well 1 (0.5μM, third assay): 2.5959
OD490 value, Well 2 (0.5μM, third assay): 2.8645
OD490 value, Well 3 (0.5μM, third assay): 2.5656
OD490 value, Mean (1μM, first assay): 2.5821
OD490 value, Well 1 (1μM, first assay): 2.5465
OD490 value, Well 2 (1μM, first assay): 2.6265
OD490 value, Well 3 (1μM, first assay): 2.5734
OD490 value, Mean (1μM, second assay): 2.6167
OD490 value, Well 1 (1μM, second assay): 2.6874
OD490 value, Well 2 (1μM, second assay): 2.5987
OD490 value, Well 3 (1μM, second assay): 2.5641
OD490 value, Mean (1μM, third assay): 2.6782
OD490 value, Well 1 (1μM, third assay): 2.5645
OD490 value, Well 2 (1μM, third assay): 2.7848
OD490 value, Well 3 (1μM, third assay): 2.6854
OD490 value, Mean (10μM, first assay): 2.6025
OD490 value, Well 1 (10μM, first assay): 2.4718
OD490 value, Well 2 (10μM, first assay): 2.7280
OD490 value, Well 3 (10μM, first assay): 2.6077
OD490 value, Mean (10μM, second assay): 2.7525
OD490 value, Well 1 (10μM, second assay): 2.8301
OD490 value, Well 2 (10μM, second assay): 2.6874
OD490 value, Well 3 (10μM, second assay): 2.7401
OD490 value, Mean (10μM, third assay): 2.6780
OD490 value, Well 1 (10μM, third assay): 2.5659
OD490 value, Well 2 (10μM, third assay): 2.6898
OD490 value, Well 3 (10μM, third assay): 2.7784
OD490 value, Mean (25μM, first assay): 2.6414
OD490 value, Well 1 (25μM, first assay): 2.4669
OD490 value, Well 2 (25μM, first assay): 2.6653
OD490 value, Well 3 (25μM, first assay): 2.7919
OD490 value, Mean (25μM, second assay): 2.6474
OD490 value, Well 1 (25μM, second assay): 2.8835
OD490 value, Well 2 (25μM, second assay): 2.4699
OD490 value, Well 3 (25μM, second assay): 2.5888
OD490 value, Mean (25μM, third assay): 2.6061
OD490 value, Well 1 (25μM, third assay): 2.5656
OD490 value, Well 2 (25μM, third assay): 2.6632
OD490 value, Well 3 (25μM, third assay): 2.5894
OD490 value, Mean (50μM, first assay): 2.6499
OD490 value, Well 1 (50μM, first assay): 2.7237
OD490 value, Well 2 (50μM, first assay): 2.5642
OD490 value, Well 3 (50μM, first assay): 2.6617
OD490 value, Mean (50μM, second assay): 2.5211
OD490 value, Well 1 (50μM, second assay): 2.6654
OD490 value, Well 2 (50μM, second assay): 2.5656
OD490 value, Well 3 (50μM, second assay): 2.3324
OD490 value, Mean (50μM, third assay): 2.6330
OD490 value, Well 1 (50μM, third assay): 2.6547
OD490 value, Well 2 (50μM, third assay): 2.5655
OD490 value, Well 3 (50μM, third assay): 2.6788
OD490 value, Mean (100μM, first assay): 1.9886
OD490 value, Well 1 (100μM, first assay): 2.0164
OD490 value, Well 2 (100μM, first assay): 1.9699
OD490 value, Well 3 (100μM, first assay): 1.9794
OD490 value, Mean (100μM, second assay): 2.0267
OD490 value, Well 1 (100μM, second assay): 1.8863
OD490 value, Well 2 (100μM, second assay): 1.9925
OD490 value, Well 3 (100μM, second assay): 2.2014
OD490 value, Mean (100μM, third assay): 2.0032
OD490 value, Well 1 (100μM, third assay): 1.9987
OD490 value, Well 2 (100μM, third assay): 2.0123
OD490 value, Well 3 (100μM, third assay): 1.9986
IC50 (MTS assay, 24 h exposure): > 150 µM
